Measured values published in ChEMBL document CHEMBL5465560, “Selectivity Literature for EUbOPEN Chemogenomic Library” (2024).

Columns and labels:
[1] = target: T1, Aurora kinase C (Homo sapiens) (UniProt Q9UQB9); conditions: at 10 µM
T1 sequence (whole entry): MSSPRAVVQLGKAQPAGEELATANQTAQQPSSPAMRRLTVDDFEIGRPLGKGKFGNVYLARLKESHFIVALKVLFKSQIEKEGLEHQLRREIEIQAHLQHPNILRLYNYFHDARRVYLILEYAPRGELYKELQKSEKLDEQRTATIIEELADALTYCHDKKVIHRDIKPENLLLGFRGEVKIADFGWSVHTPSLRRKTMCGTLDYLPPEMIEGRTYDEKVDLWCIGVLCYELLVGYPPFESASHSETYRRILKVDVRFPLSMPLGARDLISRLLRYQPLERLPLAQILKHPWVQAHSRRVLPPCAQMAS

[2] = target: T2, Serine/threonine-protein kinase haspin (Homo sapiens) (UniProt Q8TF76); assay: Selectivity interaction (Kinase panel (Invitrogen)) EUB0000639a GSG2; conditions: at 200 nM
T2 sequence (whole entry): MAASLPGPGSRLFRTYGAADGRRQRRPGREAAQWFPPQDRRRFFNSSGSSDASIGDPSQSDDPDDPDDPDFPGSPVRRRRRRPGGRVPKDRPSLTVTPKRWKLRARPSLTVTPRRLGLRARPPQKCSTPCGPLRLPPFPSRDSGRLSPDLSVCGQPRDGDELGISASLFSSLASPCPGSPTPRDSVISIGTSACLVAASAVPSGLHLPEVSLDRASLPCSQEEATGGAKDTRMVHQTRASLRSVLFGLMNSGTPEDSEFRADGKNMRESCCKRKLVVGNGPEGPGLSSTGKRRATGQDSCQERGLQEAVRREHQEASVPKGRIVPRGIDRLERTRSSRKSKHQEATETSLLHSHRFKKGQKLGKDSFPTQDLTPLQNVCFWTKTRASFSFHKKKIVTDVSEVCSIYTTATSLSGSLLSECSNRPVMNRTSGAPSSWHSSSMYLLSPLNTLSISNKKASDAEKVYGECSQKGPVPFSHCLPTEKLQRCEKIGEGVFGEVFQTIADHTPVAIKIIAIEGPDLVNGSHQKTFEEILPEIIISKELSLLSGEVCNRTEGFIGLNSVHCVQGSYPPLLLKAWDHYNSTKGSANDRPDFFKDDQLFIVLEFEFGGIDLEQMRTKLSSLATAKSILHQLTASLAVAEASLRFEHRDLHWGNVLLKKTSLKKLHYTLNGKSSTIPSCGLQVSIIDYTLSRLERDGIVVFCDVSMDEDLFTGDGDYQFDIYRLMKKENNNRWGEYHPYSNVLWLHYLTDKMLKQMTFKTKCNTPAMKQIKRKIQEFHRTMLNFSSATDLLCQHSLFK

[3] = target: T3, Serine/threonine-protein kinase Nek2 (Homo sapiens) (UniProt P51955); assay: Selectivity interaction (KinomeScan (DiscoverX)) EUB0000618a NEK2; conditions: at 10 µM
T3 sequence (whole entry): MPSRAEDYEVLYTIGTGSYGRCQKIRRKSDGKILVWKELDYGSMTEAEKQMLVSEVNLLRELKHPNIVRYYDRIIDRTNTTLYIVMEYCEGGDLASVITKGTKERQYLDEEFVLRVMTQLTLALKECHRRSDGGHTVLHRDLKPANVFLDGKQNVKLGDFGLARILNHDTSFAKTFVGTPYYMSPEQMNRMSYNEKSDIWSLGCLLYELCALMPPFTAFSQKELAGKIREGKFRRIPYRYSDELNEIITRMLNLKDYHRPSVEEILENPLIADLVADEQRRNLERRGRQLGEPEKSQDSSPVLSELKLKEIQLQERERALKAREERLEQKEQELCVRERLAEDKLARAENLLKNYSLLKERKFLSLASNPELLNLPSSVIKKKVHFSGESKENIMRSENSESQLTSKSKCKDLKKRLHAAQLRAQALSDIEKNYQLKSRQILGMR

[4] = target: Mitogen-activated protein kinase 14 (Homo sapiens, UniProt Q16539); assay: Selectivity interaction (ActivX KiNativ screen (ex vivo kinase selectivity in human PBMCs)) EUB0001619a MAPK14; assay type: cell-based; conditions: PBMC, at 1 µM
[5] = target: Cyclin-dependent kinase 17 (Homo sapiens) (UniProt Q00537); assay: Selectivity interaction (KinomeScan (DiscoverX)) EUB0000655a CDK17; conditions: at 10 µM
[6] = target: T4, Serine/threonine-protein kinase TAO2 (Homo sapiens) (UniProt Q9UL54); assay: Selectivity interaction (KinomeScan (DiscoverX)) EUB0000695a TAOK2; conditions: at 100 nM
T4 sequence (whole entry): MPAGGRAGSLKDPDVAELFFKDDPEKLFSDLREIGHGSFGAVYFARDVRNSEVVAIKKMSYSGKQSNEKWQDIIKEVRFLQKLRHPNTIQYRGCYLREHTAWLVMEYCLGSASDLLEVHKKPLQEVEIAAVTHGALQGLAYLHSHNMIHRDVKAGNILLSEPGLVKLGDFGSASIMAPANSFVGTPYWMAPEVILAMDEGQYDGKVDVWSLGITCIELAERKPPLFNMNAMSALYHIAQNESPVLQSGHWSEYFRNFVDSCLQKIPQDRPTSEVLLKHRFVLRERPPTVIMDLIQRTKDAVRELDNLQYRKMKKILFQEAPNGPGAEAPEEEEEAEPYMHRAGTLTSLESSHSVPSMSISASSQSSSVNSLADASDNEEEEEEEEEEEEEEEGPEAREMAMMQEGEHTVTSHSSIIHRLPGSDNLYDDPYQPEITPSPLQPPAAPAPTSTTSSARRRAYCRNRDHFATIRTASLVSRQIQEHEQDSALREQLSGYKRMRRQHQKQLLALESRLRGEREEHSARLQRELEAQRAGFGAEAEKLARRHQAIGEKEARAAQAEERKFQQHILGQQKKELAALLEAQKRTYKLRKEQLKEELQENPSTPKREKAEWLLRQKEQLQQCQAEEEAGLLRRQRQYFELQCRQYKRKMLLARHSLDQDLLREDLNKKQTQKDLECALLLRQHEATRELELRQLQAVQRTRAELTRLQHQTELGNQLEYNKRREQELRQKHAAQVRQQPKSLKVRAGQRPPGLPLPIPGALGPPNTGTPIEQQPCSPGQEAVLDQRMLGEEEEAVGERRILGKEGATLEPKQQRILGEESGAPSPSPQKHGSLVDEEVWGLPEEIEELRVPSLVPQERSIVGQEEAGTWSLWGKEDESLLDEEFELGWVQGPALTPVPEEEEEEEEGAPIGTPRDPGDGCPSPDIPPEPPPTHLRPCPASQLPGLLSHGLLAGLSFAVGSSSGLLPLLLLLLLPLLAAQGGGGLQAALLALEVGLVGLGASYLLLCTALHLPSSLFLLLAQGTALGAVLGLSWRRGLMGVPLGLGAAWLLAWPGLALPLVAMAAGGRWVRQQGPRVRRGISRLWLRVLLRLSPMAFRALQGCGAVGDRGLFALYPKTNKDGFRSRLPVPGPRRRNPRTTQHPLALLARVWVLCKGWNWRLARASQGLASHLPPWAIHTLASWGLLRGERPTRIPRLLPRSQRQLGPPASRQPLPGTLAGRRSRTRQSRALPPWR

Mitogen-activated protein kinase 14, sequence (Q16539 whole entry): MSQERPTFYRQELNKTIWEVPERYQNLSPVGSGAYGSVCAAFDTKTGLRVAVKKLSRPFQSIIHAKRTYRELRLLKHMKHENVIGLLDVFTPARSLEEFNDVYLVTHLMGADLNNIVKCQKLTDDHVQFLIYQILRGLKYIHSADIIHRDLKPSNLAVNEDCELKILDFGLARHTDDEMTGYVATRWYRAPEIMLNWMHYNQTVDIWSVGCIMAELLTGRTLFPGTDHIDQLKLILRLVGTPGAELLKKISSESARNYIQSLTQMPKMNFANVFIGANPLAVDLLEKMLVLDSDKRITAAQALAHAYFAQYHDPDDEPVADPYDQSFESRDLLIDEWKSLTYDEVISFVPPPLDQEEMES
Cyclin-dependent kinase 17 (Homo sapiens), sequence (Q00537 whole entry, looked up): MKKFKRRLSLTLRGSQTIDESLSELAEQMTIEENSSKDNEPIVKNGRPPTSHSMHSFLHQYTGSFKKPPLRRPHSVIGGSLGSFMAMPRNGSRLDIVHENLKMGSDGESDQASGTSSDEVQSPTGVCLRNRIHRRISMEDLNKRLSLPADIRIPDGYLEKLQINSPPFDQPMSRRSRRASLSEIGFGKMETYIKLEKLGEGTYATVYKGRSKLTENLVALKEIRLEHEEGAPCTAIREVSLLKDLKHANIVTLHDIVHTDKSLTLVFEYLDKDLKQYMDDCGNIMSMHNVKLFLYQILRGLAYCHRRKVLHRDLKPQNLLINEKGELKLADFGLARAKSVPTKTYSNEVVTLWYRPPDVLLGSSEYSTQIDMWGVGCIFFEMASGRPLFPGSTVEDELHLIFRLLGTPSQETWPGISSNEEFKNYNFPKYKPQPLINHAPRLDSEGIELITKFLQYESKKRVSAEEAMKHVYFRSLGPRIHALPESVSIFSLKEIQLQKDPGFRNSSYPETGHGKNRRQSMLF

In the case of CCN(CC)CCCCNc1ncc2cc(-c3cc(OC)cc(OC)c3)c(NC(=O)NC(C)(C)C)nc2n1, the % of control [1] is reported as 100%.
For CC[C@@H]1[C@H](F)C(=O)N[C@@H]1COc1nccc2cc(C(N)=O)c(OC)cc12 [ZIMLOVISERTIB], the % of inhibition [2] was 41.1%.
O[C@H]1CC[C@H](Nc2ncc3nc(Nc4c(F)cc(F)cc4F)n([C@H]4CCOC4)c3n2)CC1 was tested, and the % of control [3] was 100%.
With N#Cc1cccc(-c2c[nH]c3ncnc(N4CCOCC4)c23)c1 the % of inhibition [4] was -15%.
CN(C)CCOc1ccc(-c2nc(-c3ccncc3)c(-c3ccc4c(c3)CC/C4=N\O)[nH]2)cc1 was tested, and the % of control [5] was 87%.
Cc1cc(F)c(C(=O)Nc2cccc(-c3nncn3C(C)C)n2)cc1-n1cnc(C2CC2)c1 showed a % of control [6] of 100%.
